From the NIST ThermoML archive (doi:10.1021/je025620p)
± gives the expanded uncertainty stated by the source.

Assay: isobaric coefficient of expansion
Conditions: 303.15 K, Liquid

CCCCCCC [heptane]
Conditions	isobaric coefficient of expansion
500 kPa	0.00125 ± 3.1e-05 1/K
1000 kPa	0.00124 ± 3e-05 1/K
2000 kPa	0.00123 ± 3e-05 1/K
3000 kPa	0.00122 ± 3e-05 1/K
4000 kPa	0.00121 ± 3e-05 1/K
5000 kPa	0.00119 ± 2.9e-05 1/K
6000 kPa	0.00118 ± 2.9e-05 1/K
7000 kPa	0.00117 ± 2.9e-05 1/K
8000 kPa	0.00116 ± 2.8e-05 1/K
9000 kPa	0.00115 ± 2.8e-05 1/K
10000 kPa	0.00114 ± 2.8e-05 1/K
11000 kPa	0.00113 ± 2.8e-05 1/K
12000 kPa	0.00112 ± 2.7e-05 1/K
13000 kPa	0.00111 ± 2.7e-05 1/K
14000 kPa	0.0011 ± 2.7e-05 1/K
15000 kPa	0.00109 ± 2.7e-05 1/K
16000 kPa	0.00108 ± 2.7e-05 1/K
17000 kPa	0.00108 ± 2.6e-05 1/K
18000 kPa	0.00107 ± 2.6e-05 1/K
19000 kPa	0.00106 ± 2.6e-05 1/K
20000 kPa	0.00105 ± 2.6e-05 1/K
21000 kPa	0.00104 ± 2.6e-05 1/K
22000 kPa	0.00104 ± 2.5e-05 1/K
23000 kPa	0.00103 ± 2.5e-05 1/K
24000 kPa	0.00102 ± 2.5e-05 1/K
25000 kPa	0.00101 ± 2.5e-05 1/K
26000 kPa	0.00101 ± 2.5e-05 1/K
27000 kPa	0.001 ± 2.5e-05 1/K
28000 kPa	0.000995 ± 2.4e-05 1/K
29000 kPa	0.000988 ± 2.4e-05 1/K
30000 kPa	0.000983 ± 2.4e-05 1/K

C1CCCCC1 [cyclohexane]
Conditions	isobaric coefficient of expansion
500 kPa	0.00118 ± 2.9e-05 1/K
1000 kPa	0.00117 ± 2.9e-05 1/K
2000 kPa	0.00116 ± 2.8e-05 1/K
3000 kPa	0.00115 ± 2.8e-05 1/K
4000 kPa	0.00114 ± 2.8e-05 1/K
5000 kPa	0.00113 ± 2.8e-05 1/K
6000 kPa	0.00113 ± 2.8e-05 1/K
7000 kPa	0.00112 ± 2.7e-05 1/K
8000 kPa	0.00111 ± 2.7e-05 1/K
9000 kPa	0.0011 ± 2.7e-05 1/K
10000 kPa	0.00109 ± 2.7e-05 1/K
11000 kPa	0.00109 ± 2.7e-05 1/K
12000 kPa	0.00108 ± 2.6e-05 1/K
13000 kPa	0.00107 ± 2.6e-05 1/K
14000 kPa	0.00106 ± 2.6e-05 1/K
15000 kPa	0.00106 ± 2.6e-05 1/K
16000 kPa	0.00105 ± 2.6e-05 1/K
17000 kPa	0.00104 ± 2.6e-05 1/K
18000 kPa	0.00104 ± 2.5e-05 1/K
19000 kPa	0.00103 ± 2.5e-05 1/K
20000 kPa	0.00103 ± 2.5e-05 1/K
21000 kPa	0.00102 ± 2.5e-05 1/K
22000 kPa	0.00101 ± 2.5e-05 1/K
23000 kPa	0.00101 ± 2.5e-05 1/K
24000 kPa	0.001 ± 2.5e-05 1/K
25000 kPa	0.000994 ± 2.4e-05 1/K
26000 kPa	0.000988 ± 2.4e-05 1/K
27000 kPa	0.000985 ± 2.4e-05 1/K
28000 kPa	0.000977 ± 2.4e-05 1/K
29000 kPa	0.000975 ± 2.4e-05 1/K
30000 kPa	0.00097 ± 2.4e-05 1/K

CCCCCC [hexane]
Conditions	isobaric coefficient of expansion
500 kPa	0.00135 ± 3.3e-05 1/K
1000 kPa	0.00135 ± 3.3e-05 1/K
2000 kPa	0.00133 ± 3.3e-05 1/K
2700 kPa	0.00132 ± 3.2e-05 1/K
4000 kPa	0.0013 ± 3.2e-05 1/K
4900 kPa	0.00129 ± 3.2e-05 1/K
6000 kPa	0.00126 ± 3.1e-05 1/K
7000 kPa	0.00125 ± 3.1e-05 1/K
8000 kPa	0.00124 ± 3e-05 1/K
9000 kPa	0.00122 ± 3e-05 1/K
10000 kPa	0.00121 ± 3e-05 1/K
11000 kPa	0.0012 ± 2.9e-05 1/K
12000 kPa	0.00119 ± 2.9e-05 1/K
13000 kPa	0.00118 ± 2.9e-05 1/K
14100 kPa	0.00116 ± 2.9e-05 1/K
14500 kPa	0.00116 ± 2.8e-05 1/K
16000 kPa	0.00115 ± 2.8e-05 1/K
17000 kPa	0.00114 ± 2.8e-05 1/K
18000 kPa	0.00113 ± 2.8e-05 1/K
19000 kPa	0.00112 ± 2.7e-05 1/K
20000 kPa	0.00111 ± 2.7e-05 1/K
21000 kPa	0.0011 ± 2.7e-05 1/K
22000 kPa	0.00109 ± 2.7e-05 1/K
23000 kPa	0.00108 ± 2.7e-05 1/K
24500 kPa	0.00107 ± 2.6e-05 1/K
25000 kPa	0.00107 ± 2.6e-05 1/K
26000 kPa	0.00106 ± 2.6e-05 1/K
27000 kPa	0.00105 ± 2.6e-05 1/K
28000 kPa	0.00104 ± 2.6e-05 1/K
29000 kPa	0.00104 ± 2.5e-05 1/K
30000 kPa	0.00103 ± 2.5e-05 1/K

Cc1ccccc1 [toluene]
Conditions	isobaric coefficient of expansion
500 kPa	0.00104 ± 2.6e-05 1/K
1000 kPa	0.00104 ± 2.5e-05 1/K
2000 kPa	0.00103 ± 2.5e-05 1/K
3000 kPa	0.00103 ± 2.5e-05 1/K
4000 kPa	0.00102 ± 2.5e-05 1/K
5000 kPa	0.00101 ± 2.5e-05 1/K
6000 kPa	0.00101 ± 2.5e-05 1/K
7000 kPa	0.001 ± 2.5e-05 1/K
8000 kPa	0.000996 ± 2.4e-05 1/K
9000 kPa	0.00099 ± 2.4e-05 1/K
10000 kPa	0.000984 ± 2.4e-05 1/K
11000 kPa	0.000977 ± 2.4e-05 1/K
12000 kPa	0.000973 ± 2.4e-05 1/K
13000 kPa	0.000967 ± 2.4e-05 1/K
14000 kPa	0.000962 ± 2.4e-05 1/K
15000 kPa	0.000957 ± 2.3e-05 1/K
16000 kPa	0.000952 ± 2.3e-05 1/K
17000 kPa	0.000947 ± 2.3e-05 1/K
18000 kPa	0.000942 ± 2.3e-05 1/K
19000 kPa	0.000937 ± 2.3e-05 1/K
20000 kPa	0.000932 ± 2.3e-05 1/K
21000 kPa	0.000928 ± 2.3e-05 1/K
22000 kPa	0.000923 ± 2.3e-05 1/K
23000 kPa	0.000918 ± 2.2e-05 1/K
24000 kPa	0.000914 ± 2.2e-05 1/K
25000 kPa	0.000908 ± 2.2e-05 1/K
26000 kPa	0.000904 ± 2.2e-05 1/K
27000 kPa	0.000903 ± 2.2e-05 1/K
28000 kPa	0.000896 ± 2.2e-05 1/K
29000 kPa	0.000896 ± 2.2e-05 1/K
30000 kPa	0.000892 ± 2.2e-05 1/K
